Reference: patent US6180669A, “Method for treatment of dermatological disorders” (priority 1999, dated 2001)
pIC50: −log10 of the molar value. “Also recorded” adds a separate entry of the source. Where two headings read alike, the source gives them in different places.

Key:
[1] = test system: skin of rabbits; test: Acute dermal toxicity/irritation test (modified Draise); assay type: in vivo, rabbit; conditions: 10% and 20%, 0.5 ml, 24 h application, observed 1, 24 and 72 h after removal
Experimental: These findings emphasize a distinct advantage of di(ethyl salicylate)azelate over its parent components.
Acute dermal toxicity/irritation test. The purpose of this study was to evaluate the acute potential dermal irritation effect on skin following the topical application of di(ethyl salicylate) azelate, in rabbits. This test is a modified version of the original Draise method, as described in OECD guidelines. 0.5 ml of either di(ethyl salicylate)azelate (10% or 20%, dissolved in PEG-400/ethanol 1:1) or the vehicle alone were applied to the skin of three rabbits for 24 hours. Rabbits were examined for signs of skin irritation 1, 24 and 72 hours after the removal of the test solutions. […] Based on the current protocol it was concluded that di(ethyl salicylate) azelate is a non-irritant agent.

[2] = test system: skin oiliness of forehead; test: Sebolytic effect (skin oiliness of forehead, Skin Tester); assay type: in vivo, human; conditions: lotion of Example 5, twice daily, 14 days; prior to treatment 223 units
Experimental: Following fourteen days of topical treatment, the skin oiliness of the forehead of a human volunteer, tested using a photometric instrument was reduced from 223 units (resembling "oily skin") to 205 units (normal skin value).
Sebolytic effect of di(ethyl salicylate)azelate. […] Skin oiliness was tested using "Skin Tester, Model STC20" (IMS Ltd., Haifa, Israel) prior to treatment and 14 days thereafter. Prior to treatment, the sebum value was 223 units, typical of oily skin. The sebum value after two weeks of treatment was 205 units, corresponding to normal skin.

[3] = test system: culicoides hypersensitivity; test: Effect on culicoides hypersensitivity in horses; assay type: in vivo, horse; conditions: 5% alcoholic solution, topically twice daily for two weeks
Experimental: Prior to treatment, the horses had typical occurrence of the disease, including localized dermatitis affecting the mane and poll and the root of the tail. FIG. 1 is a photograph of the mane area of a horse afflicted by culicoides hypersensitivity. […] The skin at the affected areas looked hairless, ridged and scaly. The shoulder area and hind quarters were also affected. The horses were treated topically with a 5% alcoholic solution of di(ethyl salicylate) azelate, twice daily for two weeks.
The effect of di(ethyl salicylate) azelate on culicoides hypersensitivity was tested in two horses with colicoides hypersensitivity. Prior to treatment, both horses had typical occurrence of the disease, including localized dermatitis affecting the mane and poll and the root of the tail. The shoulder area and hind quarters were also affected. The skin at the affected areas looked hairless, ridged and scaly. The horses were treated topically with a 5% alcoholic solution of di(ethyl salicylate)azelate, twice daily for two weeks. […] As clearly seen in the pictures, hair seemed to regrow and the skin looked healthy. This improvement persisted throughout 14 days of treatment and observation.

[4] = test system: human keratinocytes; test: Cell proliferation assay; assay type: cell-based; conditions: for pIC50: Homo sapiens; for potency in inhibiting cell proliferation (in words): in vitro, keratinocytes
Experimental: Modulation of keratinocyte proliferation.
Cell proliferation assay.
50,000 human keratinocytes from secondary culture were seeded into 24 well plates, in 1 ml DMEM-F12 medium (Green H. (1978) Cell 15:801-805) with growth factors and 10% Fetal Calf Serum. The cells were incubated at 37° C. in 5% CO2 until 30-40% confluency was reached and then the various test materials, dissolved in ethanol, were added in volumes of 0.1-20 μl, to final volume of 0.5 ml. The same volumes of ethanol were added to control cultures, for comparative values of ethanol cytotoxicity. No apparent cytotoxicity was found up to 40 μl ml ethanol. The medium was replaced with fresh medium prior to addition of the test materials. The cultures were further incubated for 3 days at 37° C. and 5% CO2 and then washed with phosphate buffered saline (PBS). Cell numbers were determined using two methods: 1) trypsinization, followed by cell counting; and 2) fixation of the culture with p-formaldehyde 2% in PBS and methylene blue staining, followed by extraction of color and optical density measurement at 650 nm. Both methods were found in good correlation, so that 1 OD unit corresponded to 1,000,000 cells. IC50, i.e., the concentration that caused 50% inhibition of cell proliferation for each of the test materials is presented in Table 1.

[5] = in vitro; conditions: human, keratinocytes
Experimental: The direct effect of the compounds of the invention on the proliferation of human keratinocytes was assessed in vitro using a keratinocyte cell line.
Modulation of keratinocyte proliferation. The effect of di(ethyl salycilate)azelate and di-retinyl azelate on cell proliferation and cell viability was tested in vitro using human keratinocyte culture system.
Keratinocyte cells, as above, were allowed to proliferate in medium, without the test materials, up to 100% confluency, with one exchange of medium during growth. Confluent cultures were incubated with increasing concentrations of the test materials in ethanol for three days at 37° C. and 5% CO2. At the end of the incubation period the cultures were washed with PBS and measured for remaining attached cells using the above described methods.

[6] = test system: skin of a human subject; test: Human skin irritation test; assay type: in vivo; conditions: 48 h application, 0.1 ml; observed upon removal and 1, 24, 48 h later; ester 20%; mixture 7.5% azelaic acid + 11% salicylic acid
Experimental: Human skin irritation test. The following lotions (0.1 ml) were applied to the skin of a human subject for 48 hours, using standard skin irritation test chambers (0.64 sq. cm.):
(1) 20% di(ethyl salicylate)azelate (400 mmole/ml), dissolved in PEG-400/ethanol 1:1;
(2) mixture of 7.5% azelaic acid (400 mmole/ml) and 11% salicylic acid (800 mmole/ml), dissolved in PEG-400/ethanol 1:1; and
(3) PEG-400/ethanol 1:1 (placebo).

[7] = test system: comedones, rabbit ear acne model; test: Efficacy in the rabbit ear acne model (comedolytic effect); assay type: in vivo
Experimental: See, Lee, et al. Kor. J. Dermatol. 28(5):543-549 (1990).
Efficacy of di(ethyl salicylate)azelate (10%) in the rabbit ear acne model. Three mature male albino rabbits were treated as follows. The external ear canals on both ears were treated once daily for five weekdays for three weeks with 1% crude coal tar in Hydrophilic Ointment USP. Then one ear was treated with antiacne lotion of Example 4 once daily for five weekdays for three weeks while the opposite ear served as an untreated control. Excision biopsies were taken from both sides at the end of three weeks of treatment. […] These were judged to be moderate examples of comedones with distortion of the follicular infundibulum by dense horn.

[8] = test system: chin acne; furunculosis (eczema); test: Anti-acne and anti-inflammatory effect in cats (chin acne, furunculosis); assay type: in vivo, cat; conditions: 5% alcoholic solution, twice daily for 14 days
Experimental: The compounds of the present invention have been shown in animals to alleviate the symptoms of acne. Four cats with persistant chin acne were treated twice daily for 14 days with 5% alcoholic solution of di(ethyl salicylate) azelate. […] The skin lesions disappeared and the bald areas were covered with new hair.
Anti-acne and anti-inflammatory effect of di(ethyl salicylate) azelate. Four cats were admitted to the veterinary clinic with skin lesions identified as chin acne. One additional cat had localized furunculosis (eczema) on the chin. The area of the skin lesions was 1-4 cm^2 at baseline. All animals were previously treated with either benzoyl peroxide or topical steroids with no response. Cats were treated twice daily for 14 days with a 5% alcoholic solution of di(ethyl salicylate) azelate.

[9] = test system: reduction of testosterone to dihydrotestosterone; conditions: literature; cited from earlier work
[10] = test system: sebaceous glands; conditions: topical, literature, cited from earlier work
[11] = test system: keratinocytes; conditions: Passi et al.; cited from earlier work
[12] = test system: acne; conditions: 20% preparation, twice daily; Fitton and Goa; cited from earlier work
[13] = listed as di(ethyl salicylate) azelate
[14] = Keratinocyte, 72 h, 3 days incubation, 50% inhibition of cell proliferation, Table 1, read-out: IC50 (inhibitory concentration)
[15] = keratinocyte cell line, read-out: inhibitory concentration, cell proliferation
[16] = cytotoxic concentrations higher than inhibitory concentrations

CCOC(=O)c1ccccc1OC(=O)CCCCCCCC(=O)Oc1ccccc1C(=O)OCC [di(ethyl salicylate)azelate, Nonanedioic acid, di-[(2'-ethoxycarbonyl)phenyl]ester]
signs of skin irritation [1]: no signs of irritation
signs of skin irritation [1, 13]: no signs of skin irritation were observed
sebum value (skin oiliness) after treatment [2]: 205 units
improvement of lesions and hair growth [3]: After one week of treatment, there was a marked improvement in the appearance of all treated lesions; also recorded: hair seemed to regrow and the skin looked healthy. This improvement persisted throughout 14 days of treatment and observation
improvement of lesions and hair growth [3, 13]: After one week of treatment, there was a marked improvement in the appearance of all treated lesions. Hair regrew and the skin looked healthy
pIC50 [4, 14]: 3.52
pIC50 [4, 15]: 3.52
potency in inhibiting cell proliferation (in words) [4]: significantly more potent than azelaic acid and salicylic acid
CC50 [5]: 3 µM
CC50 at 72 h [5]: 3 mM
selectivity ratio ([5]; Safety factor (CD50/ID50)): 10
selectivity ratio [5, 16]: 6.6 to 10
selectivity ratio ([5]; therapeutic safety margin): 6.6 to 10
skin reaction / irritation [6]: did not irritate the skin; also recorded: no sign of any skin reaction
reduction of comedones ([7]; 10% topical, once daily five weekdays for three weeks): effective in the reduction of comedones; also recorded: All three treated ears showed a marked reduction of the comedones
comedolytic effect compared with 0.025% Retin A Cream ([7]; 10% topical, rabbit ear): comparable to the effect of 0.025% Retin A Cream
comedolytic effect compared with 20% azelaic acid preparation of the prior art ([7]; 10% topical, rabbit ear, comparison with Lee et al.): superior to a 20% (1,060 mmole/ml) azelaic acid preparation
inflammatory response in treated area ([7]; topical, rabbit ear, Retin A at 0.025%): did not induce any inflammatory response in the treated area; also recorded: no inflammatory reaction
skin irritation in treated cats [8]: No skin irritation was noticed in any of the treated cats
response of chin acne ([8]; four cats): Three of the four cats responded to treatment within 10 days; also recorded: Three of the four cats responded to treatment within ten days
response of furunculosis (eczema) ([8]; one cat): responded positively; also recorded: successfully treated

CC1=C(/C=C/C(C)=C/C=C/C(C)=C/COC(=O)CCCCCCCC(=O)OC/C=C(C)/C=C/C=C(C)/C=C/C2=C(C)CCCC2(C)C)C(C)(C)CCC1 [Di-retinyl azelate, di-retinyl azelate]
pIC50 [4, 14]: 4.82
pIC50 [4, 15]: 4.82
potency in inhibiting cell proliferation (in words) [4]: significantly more potent than azelaic acid and salicylic acid
CC50 [5]: 100 µM
CC50 at 72 h [5]: 0.1 mM
selectivity ratio ([5]; Safety factor (CD50/ID50)): 6.6
selectivity ratio [5, 16]: 6.6 to 10
selectivity ratio ([5]; therapeutic safety margin): 6.6 to 10

O=C(O)c1ccccc1O [Salicylic acid, o-hydroxybenzoic acid, reference compound]
pIC50 ([4]; Keratinocyte, 72 h, read-out: IC50 (inhibitory concentration)): 2.80
CC50 at 72 h [5]: 6 mM
selectivity ratio [5]: 3.8

O=C(O)CCCCCCCC(=O)O [Azelaic acid, reference compound]
pIC50 [4, 14]: 2.82
pIC50 [4, 15]: 3.00
CC50 at 72 h [5]: 4 mM
selectivity ratio ([5]; Safety factor (CD50/ID50)): 2.6
selectivity ratio ([5]; cytotoxic concentration, times higher than inhibitory concentration): 2.6
inhibition of testosterone reduction to dihydrotestosterone [9]: competitive inhibitor of the reduction of testosterone to dihydrotestosterone
skin oiliness / sebum composition, sebum excretion rate, size of sebaceous glands [10]: can not alter skin oiliness
skin oiliness / sebum composition, sebum excretion rate, size of sebaceous glands ([10]; listed as AZA): failed to induce specific changes in sebum composition, sebum excretion rate and the size of sebaceous glands
effect on keratinocytes [11]: antiproliferative effects on keratinocytes
time of topical application until effective in acne [12]: 3-6 months
